Data: patent US6992073B2, “Use of N-acetyl-D-glucosamine in the manufacture of a medicament for treating cervical erosion” (Third Military Medical University, Chinese People's …, priority 2002, dated 2006)

Legend:
[1] = system: cervix erosion; assay: Clinic test in patients with cervix erosion; type: in vivo, human beings; settings: treating group 83 cases, positive medicament control group 60 cases
Excerpt: A spray formulation of 2% N-acetyl-D-glucosamine was applied to human beings, up to the end of August 1999, there were 123 cases of patients to be observed in total.

[2] = in vivo
Excerpt: (§1) • 1. […] Experimental Results and Evaluation: • The experiment adopts a bio-wave model which is used to research the promoting wave function of the compound of formula (I). […] II. Toxicological Test of the Compound of Formula (I), including: • 1. acute toxicity test: including tests of administrating medicine by oral, Intravenous injection and maximum limit amount for administration; • 2. […] III. Test of Removing Pathogenic Microorganism by Resistance to Field Planting Action

[3] = system: Proteus Mirabilis; assay: Promoting wave test (bio-wave model on LB plate); type: cell-based
Excerpt: as §1

[4] = system: Lactobacilli; assay: Liquid cultivation of Lactobacilli; type: cell-based
Excerpt: as §1

[5] = system: pathogenic microorganism such as Candida albicans, vagina Heamophilus; assay: Test of removing pathogenic microorganism by resistance to field planting action; type: cell-based; settings: in situ bacterial field planting, qualitative and quantitative determination tests

Compound | cured (number of cases) [1] | effective (number of cases) [1] | acute test dosage relative to the injection dosage for human being [2] [times] | promoting wave function (wave pattern of concentric rings) [3] | growth of Lactobacilli [4] | effect on field planting growth of pathogenic microorganism [5] | sterilizing or bacteria-inhibiting effect [5]
O=[N+]([O-])[O-].[Ag+] [AgNO3] | 5 | 8 | – | – | – | – | –
CC(=O)N[C@@H]1[C@@H](O)[C@H](O)[C@@H](CO)O[C@H]1O [compound of formula (I), N-acetyl-D-glucosamine] | – | – | 300 | many fine waves on each ring emerged | can improve the growth of Lactobacilli | disabling pathogenic microorganism such as Candida albicans, vagina Heamophilus and etc. from field planting growth | substantially has no sterilizing or bacteria-inhibiting effect
